Experimental data from patent US20240067651A1 (Biohaven Therapeutics Ltd., priority 2019, published 2024).

Columns and labels:
[1] = Plasma Stability; type: in vitro ADME, human; conditions: % remaining at 1 h in human plasma
In short: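 Compounds incubated at 1 μM in fresh human plasma for 1 hour at 37° C, then protein-precipitated with acetonitrile/formic acid containing internal standard. Remaining parent measured by LC-MS/MS in triplicate, expressed as percent of control remaining.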

[2] = Caco-2 Permeability Assay; type: in vitro ADME, human; conditions: human
Description: The compounds of the invention may be tested for biological activity as MPO inhibitors by methods known to those skilled in the art. In addition, methods such as, for example, a Caco-2 assay, may be used to test the bioavailability of the compounds of the invention. A description of a Caco-2 permeability assay is as follows:
• The Caco-2 monolayer is widely used across the pharmaceutical industry as an in vitro model of the human small intestinal mucosa to predict the absorption of orally administered drugs.^1-4 • The Caco-2 cell model mimics processes such as transcellular transport, paracellular transport, and some aspects of efflux and active transport. • Readout: Papp (A→B), Papp (B→A), Efflux ratio, % Recovery • Controls: with and without Pgp inhibitor; Atenolol, Propanolol, Taxel-1
The Caco-2 cells are cultured to confluency, trypsinized and seeded onto a filter transwell insert at a density of ^˜32,000 cells/well in DMEM cell culture medium. Cells are grown in a humidified atmosphere of 5% CO2 at 37° C. Following an overnight attachment period (24 h after seeding), the cell medium is replaced with fresh medium in both the apical and basolateral compartments every other day. The cell monolayers are used for transport studies 21 days post seeding after measuring the TEER values ([…]). The apical sides and basolateral sides are washed consecutively with HBSS 2.5% (v/v), HEPES (pH 7.4) or HBSS 2.5% (v/v), HEPES 10% (v/v), and Fetal Bovine Serum (pH 7.4) at 37° C. in an incubator under an atmosphere of 5% CO2.
Donor working solution is prepared by dilution of DMSO stock of test article or positive control with transport media to 10 μM.
For A→B directional transport, the donor working solution (with test article or positive control, with or without Pgp inhibitor) is added to the apical (A) compartment and the transport media as receiver working solution is added to the basolateral (B) compartment. For B→A directional transport, the donor working solution (with positive control or test article, with or without Pgp inhibitor) is added to the basolateral (B) compartment and transport media as receiver working solution is added to the apical (A) compartment.
The cells are incubated in a humidified atmosphere of 5% CO2 at 37° C. for 90 minutes.
At the end of the incubation, samples are taken from both donor and receiver compartments and transferred into 96-well assay plates containing internal standard solution (IS) in each well. After centrifugation, the supernatant solutions are transferred to clean 96 well plates and analyzed by LC-MS/MS. The MS detection is performed using a Sciex API 4000 instrument. Each compound is analyzed by reversed phase HPLC.
The parameters Papp (apparent permeability) and efflux ratio are calculated as follows:
Papp=(dQ/dt)×(1/C0)×(1/A)
Efflux ratio=Papp[B→A]/Papp[A→B]
where dQ/dt is the permeability rate, C0 is the initial concentration in the donor compartment, and A is the surface area of the cell monolayer (0.33 cm^2). The Papp value is a rate measured in cm/s. Calculated Papp is ranked as low (<[…]), moderate (1-10×10^−6 cm/s), and high (>[…]).
Comparing the efflux ratios generated in the presence and absence of a Pgp inhibitor identifies whether the test article is a Pgp substrate.
Recovery is calculated as follows:
% Recovery=(Total compound mass in donor and receiver compartments at the end of the incubation/Initial compound mass in the donor compartment)×100.

[3] = Stability in Simulated Gastric Fluid (SGF); type: in vitro ADME; set-up: key: % parent compound remaining relative to 0-minute sample; conditions: % remaining at 1 h in simulated gastric fluid
In short: (§1)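 Compound at 2 μg/mL final was incubated at 37 °C with shaking in SGF with pepsin (pH 1.2) or SIF with pancreatin (pH 6.8), sampled from 0 to 60 min. After acetonitrile precipitation, LC-MS/MS gave % parent remaining vs 0 min; half-life came from ln(% remaining) vs time.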

[4] = Stability in Simulated Intestinal Fluid (SIF); type: in vitro ADME; set-up: key: % parent compound remaining relative to 0-minute sample; conditions: % remaining at 1 h in simulated intestinal fluid
In short: as §1

[5] = Caco-2, pH 7.4, Caco-2 monolayer

Row | Compound | human Plasma stability [1] [% remaining] | Papp at 90 min, 10 µM [2, 5] [×10⁻⁶ cm/s] | SGF [3] | SIF [4] | Papp at 90 min, 10 µM ([2]; pH 7.4, Caco-2 monolayer) [×10⁻⁶ cm/s]
1 | CSCC[C@H](NC(=O)OCC1c2ccccc2-c2ccccc21)C(=O)NCCC(=O)OCn1ccc2c1c(=O)[nH]c(=S)n2CCOC(C)C.O=C(O)C(F)(F)F [Example 21] | 91 | 5.79 | 88% remaining | 75% remaining | 
2 | CC(C)OCCn1c(=S)[nH]c(=O)c2c1ccn2COC(=O)CCCCNC(=O)[C@H](Cc1ccccc1)NC(=O)OCC1c2ccccc2-c2ccccc21.O=C(O)C(F)(F)F [Example 22] | 74 | 0.647 | 87% remaining | 90% remaining | 
3 | CC(C)OCCn1c(=S)[nH]c(=O)c2c1ccn2COC(=O)CCNC(=O)[C@H](Cc1ccccc1)NC(=O)OCC1c2ccccc2-c2ccccc21.O=C(O)C(F)(F)F [Example 23] | 92 | 1.94 | 93% remaining | 84% remaining | 
4 | CC(C)OCCn1c(=S)[nH]c(=O)c2c1ccn2COC(=O)CCNC(=O)[C@@H](N)CCc1ccccc1.O=C(O)C(F)(F)F [Example 25] | 96 | 0.287 | 99% remaining | 43% remaining | 
5 | CC(C)C[C@H](NC(=O)OC(C)(C)C)C(=O)NCCCCC(=O)OCn1ccc2c1c(=O)[nH]c(=S)n2CCOC(C)C [Example 26] | 32 | 12.7 | 99% remaining | 66% remaining | 
6 | CC(C)C[C@H](NC(=O)OC(C)(C)C)C(=O)NCCC(=O)OCn1ccc2c1c(=O)[nH]c(=S)n2CCOC(C)C [Example 27] | 91 | 8.61 | 92% remaining | 61% remaining | 
7 | CSCC[C@H](NC(=O)OC(C)(C)C)C(=O)NCCCCC(=O)OCn1ccc2c1c(=O)[nH]c(=S)n2CCOC(C)C [Example 28] | 62 | 6.7 | 99% remaining | 75% remaining | 
8 | CSCC[C@H](NC(=O)OC(C)(C)C)C(=O)NCCC(=O)OCn1ccc2c1c(=O)[nH]c(=S)n2CCOC(C)C [Example 29] | 98 | 5.41 | 92% remaining | 62% remaining | 
9 | CC(C)C[C@H](N)C(=O)NCCC(=O)OCn1ccc2c1c(=O)[nH]c(=S)n2CCOC(C)C.O=C(O)C(F)(F)F [Example 30] | 40 | < 0.269 | 93% remaining | 67% remaining | 
10 | CSCC[C@H](N)C(=O)NCCCCC(=O)OCn1ccc2c1c(=O)[nH]c(=S)n2CCOC(C)C.O=C(O)C(F)(F)F [Example 31] | 1 | 0.325 | 94% remaining | 85% remaining | 
11 | CC[C@H](C)[C@H](NC(=O)OC(C)(C)C)C(=O)NCCCCC(=O)OCn1ccc2c1c(=O)[nH]c(=S)n2CCOC(C)C [Example 33] | 53 | 9.47 | 90% remaining | 78% remaining | 
12 | CC[C@H](C)[C@H](NC(=O)OC(C)(C)C)C(=O)NCCC(=O)OCn1ccc2c1c(=O)[nH]c(=S)n2CCOC(C)C [Example 34] | 93 | 10.7 | 85% remaining | 90% remaining | 
13 | CC(C)OCCn1c(=S)[nH]c(=O)c2c1ccn2COC(=O)CCCCNC(=O)[C@@H](NC(=O)OC(C)(C)C)[C@@H](C)O.O=C(O)C(F)(F)F [Example 35] | 30 | 1.91 | 91% remaining | 99% remaining | 
14 | CC(C)OCCn1c(=S)[nH]c(=O)c2c1ccn2COC(=O)CCNC(=O)[C@@H](NC(=O)OC(C)(C)C)[C@@H](C)O.O=C(O)C(F)(F)F [Example 36] | 79 | 0.835 | 95% remaining | 88% remaining | 
15 | CC[C@H](C)[C@H](N)C(=O)NCCCCC(=O)OCn1ccc2c1c(=O)[nH]c(=S)n2CCOC(C)C.O=C(O)C(F)(F)F [Example 37] | 1 | 1.09 | 88% remaining | 89% remaining | 
16 | CC[C@H](C)[C@H](N)C(=O)NCCC(=O)OCn1ccc2c1c(=O)[nH]c(=S)n2CCOC(C)C.O=C(O)C(F)(F)F [Example 38] | 65 | 0.31 | 92% remaining | 84% remaining | 
17 | CC(C)OCCn1c(=S)[nH]c(=O)c2c1ccn2COC(=O)CCCCNC(=O)[C@@H](N)[C@@H](C)O.O=C(O)C(F)(F)F [Example 39] | 5 | < 0.196 | 91% remaining | 91% remaining | 
18 | CC(C)OCCn1c(=S)[nH]c(=O)c2c1ccn2COC(=O)CCNC(=O)[C@@H](N)[C@@H](C)O.O=C(O)C(F)(F)F [Example 40] | 88 | < 0.235 | 100% | 86% remaining | 
19 | CC(C)OCCn1c(=S)[nH]c(=O)c2c1ccn2COC(=O)CCCCNC(=O)[C@H](CO)NC(=O)OC(C)(C)C.O=C(O)C(F)(F)F [Example 41] | 21 | 1.15 | 78% remaining | 87% remaining | 
20 | CC(C)OCCn1c(=S)[nH]c(=O)c2c1ccn2COC(=O)CCNC(=O)[C@H](CO)NC(=O)OC(C)(C)C.O=C(O)C(F)(F)F [Example 42] | 51 | 0.507 | 86% remaining | 75% remaining | 
21 | CC(C)OCCn1c(=S)[nH]c(=O)c2c1ccn2COC(=O)CCCCNC(=O)[C@@H](N)CO.O=C(O)C(F)(F)F [Example 43] | 16 | 0.147 | 92% remaining | 87% remaining | 
22 | CC(C)OCCn1c(=S)[nH]c(=O)c2c1ccn2COC(=O)CCNC(=O)[C@@H](N)CO.O=C(O)C(F)(F)F [Example 44] | 5 | < 0.222 | 96% remaining | 1% remaining | 
23 | CC(C)OCCn1c(=S)[nH]c(=O)c2c1ccn2COC(=O)CCCCNC(=O)[C@H](Cc1ccc(O)cc1)NC(=O)OC(C)(C)C.O=C(O)C(F)(F)F [Example 45] | 66 |  | 100% | 89% remaining | 2.28
24 | CC(C)OCCn1c(=S)[nH]c(=O)c2c1ccn2COC(=O)CCNC(=O)[C@H](Cc1ccc(O)cc1)NC(=O)OC(C)(C)C.O=C(O)C(F)(F)F [Example 46] | 63 | 1.12 | 98% remaining | 100% | 
